Several values for one entry are separate records, joined by “and”; a condition that tells them apart may be missing. Equal entries are not always repeated. Toxic doses and inconclusive results are not listed. Rule for the calls: active = survival T/C of 150% or more; inactive = T/C below 125% in these data.
Tested on: CD2F1 mice, L1210 leukemia ip, survival T/C
Assay: NCI In Vivo Anticancer Drug Screen. Data for tumor model L1210 Leukemia (intraperitoneal) in CD2F1 (CDF1) mice
Settings: higher = longer survival
Summary of the method: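 Transplantable tumor in mice; compound-treated vs vehicle-treated groups. Read-out = treated/control ratio of the measured endpoint.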

[1] = endpoint: mean survival time, dose: 100.0 mg/kg/injection, schedule: Q01DX001 (ip), vehicle: saline
[2] = endpoint: mean survival time, dose: 100.0 mg/kg/injection, schedule: Q01DX009 (ip), vehicle: saline with Tween-80
[3] = endpoint: mean survival time, dose: 100.0 mg/kg/injection, schedule: Q04DX003 (ip), vehicle: saline with Tween-80
[4] = endpoint: mean survival time, dose: 200.0 mg/kg/injection, schedule: Q01DX001 (ip), vehicle: saline
[5] = endpoint: mean survival time, dose: 200.0 mg/kg/injection, schedule: Q01DX009 (ip), vehicle: saline with Tween-80
[6] = endpoint: mean survival time, dose: 200.0 mg/kg/injection, schedule: Q04DX003 (ip), vehicle: saline with Tween-80
[7] = endpoint: mean survival time, dose: 400.0 mg/kg/injection, schedule: Q01DX009 (ip), vehicle: saline with Tween-80
[8] = endpoint: mean survival time, dose: 400.0 mg/kg/injection, schedule: Q04DX003 (ip), vehicle: saline with Tween-80
[9] = endpoint: mean survival time, dose: 100.0 mg/kg/injection, schedule: Q01DX001 (ip), vehicle: saline with Tween-80
[10] = endpoint: mean survival time, dose: 200.0 mg/kg/injection, schedule: Q01DX001 (ip), vehicle: saline with Tween-80
[11] = endpoint: mean survival time, dose: 400.0 mg/kg/injection, schedule: Q01DX001 (ip), vehicle: saline with Tween-80
[12] = endpoint: median survival time, dose: 50.0 mg/kg/injection, schedule: Q01DX005 (ip), vehicle: saline with Tween-80
[13] = endpoint: median survival time, dose: 100.0 mg/kg/injection, schedule: Q01DX005 (ip), vehicle: saline with Tween-80
[14] = endpoint: median survival time, dose: 200.0 mg/kg/injection, schedule: Q01DX005 (ip), vehicle: saline with Tween-80
[15] = endpoint: mean survival time, dose: 100.0 mg/kg/injection, schedule: Q01DX001 (ip), vehicle: Klucel (hydroxypropylcellulose) (HPC)
[16] = endpoint: mean survival time, dose: 200.0 mg/kg/injection, schedule: Q01DX001 (ip), vehicle: Klucel (hydroxypropylcellulose) (HPC)

Measured: T/C

Cc1c(NC(=O)Nc2cc([N+](=O)[O-])ccc2Cl)c(=O)n(-c2ccccc2)n1C
inactive: [1] 96 % of control | [2] 89 % of control and 98 % of control | endpoint: mean survival time, dose: 100.0 mg/kg/injection, schedule: Q04DX002 (ip), vehicle: saline 93 % of control and 107 % of control | [3] 104 % of control | [4] 86 % of control | [5] 96 % of control and 102 % of control | endpoint: mean survival time, dose: 200.0 mg/kg/injection, schedule: Q04DX002 (ip), vehicle: saline 95 % of control and 96 % of control | [6] 104 % of control | endpoint: mean survival time, dose: 400.0 mg/kg/injection, schedule: Q01DX001 (ip), vehicle: saline 86 % of control | [7] 96 % of control | endpoint: mean survival time, dose: 400.0 mg/kg/injection, schedule: Q04DX002 (ip), vehicle: saline 91 % of control and 107 % of control | [8] 95 % of control

CC(=O)ON(C(C)=O)c1ccc(S(=O)(=O)c2ccc(N(OC(C)=O)C(C)=O)cc2)cc1
inactive: endpoint: mean survival time, dose: 100.0 mg/kg/injection, schedule: Q01DX009 (ip), vehicle: saline 92 % of control | endpoint: mean survival time, dose: 200.0 mg/kg/injection, schedule: Q01DX009 (ip), vehicle: saline 90 % of control | endpoint: mean survival time, dose: 400.0 mg/kg/injection, schedule: Q01DX009 (ip), vehicle: saline 89 % of control

CC/C(I)=C(/CC)S(=O)(=O)c1ccc(C)cc1
inactive: endpoint: mean survival time, dose: 100.0 mg/kg/injection, schedule: Q04DX003 (ip), vehicle: saline 95 % of control | endpoint: mean survival time, dose: 200.0 mg/kg/injection, schedule: Q04DX003 (ip), vehicle: saline 103 % of control | endpoint: mean survival time, dose: 400.0 mg/kg/injection, schedule: Q04DX003 (ip), vehicle: saline 94 % of control

O/N=C/C=N/O.O/N=C/C=N/O.[Pd]
inactive: endpoint: mean survival time, dose: 6.25 mg/kg/injection, schedule: Q01DX009 (ip), vehicle: saline with Tween-80 100 % of control

O=c1[nH]c(/C=C/c2ccccc2)c([N+](=O)[O-])c(=O)[nH]1
inactive: [9] 95 % of control | [10] 90 % of control | [11] 90 % of control

CCCC(=O)Nc1ncnc2c1nc(SCc1ccccc1)n2C1OC2COP(=O)(O)OC2C1OC(=O)CCC (centres undefined)
inactive: endpoint: mean survival time, dose: 6.25 mg/kg/injection, schedule: Q01DX005 (ip), vehicle: water 101 % of control | endpoint: mean survival time, dose: 12.5 mg/kg/injection, schedule: Q01DX005 (ip), vehicle: water 93 % of control | endpoint: mean survival time, dose: 25.0 mg/kg/injection, schedule: Q01DX005 (ip), vehicle: water 93 % of control | endpoint: mean survival time, dose: 50.0 mg/kg/injection, schedule: Q01DX005 (ip), vehicle: water 101 % of control | endpoint: mean survival time, dose: 100.0 mg/kg/injection, schedule: Q01DX005 (ip), vehicle: water 101 % of control

COc1ccc(OC)c(C(=O)CC(O)(C(F)(F)F)C(F)(F)F)c1
inactive: [2] 97 % of control | [5] 101 % of control | [7] 97 % of control

Cc1cn2c(nc1=O)OC1C(O)C(CCl)OC12 (centres undefined)
inactive: endpoint: median survival time, dose: 12.5 mg/kg/injection, schedule: Q01DX005 (ip), vehicle: saline with Tween-80 103 % of control | endpoint: median survival time, dose: 25.0 mg/kg/injection, schedule: Q01DX005 (ip), vehicle: saline with Tween-80 96 % of control | [12] 103 % of control | [13] 95 % of control | [14] 94 % of control

N#Cc1cc(N2CC2)c([N+](=O)[O-])cc1[N+](=O)[O-]
inactive: [15] 102 % of control | [16] 103 % of control | endpoint: mean survival time, dose: 400.0 mg/kg/injection, schedule: Q01DX001 (ip), vehicle: Klucel (hydroxypropylcellulose) (HPC) 103 % of control

C#CC(O)CCC (centres undefined)
inactive: [1] 97 % of control | [4] 97 % of control

CCCN(CCC)S(=O)(=O)c1ccc(NC(=O)OC2CCC3(C)C(=CCC4C3CCC3(C)C(C(C)CCCC(C)C)CCC43)C2)cc1 (centres undefined)
inactive: endpoint: mean survival time, dose: 100.0 mg/kg/injection, schedule: Q01DX001 (sc), vehicle: steriod suspending solution 105 % of control | endpoint: mean survival time, dose: 200.0 mg/kg/injection, schedule: Q01DX001 (sc), vehicle: steriod suspending solution 97 % of control | endpoint: mean survival time, dose: 400.0 mg/kg/injection, schedule: Q01DX001 (sc), vehicle: steriod suspending solution 101 % of control

CCC(=O)Nc1ncc([N+](=O)[O-])s1
inactive: endpoint: mean survival time, dose: 50.0 mg/kg/injection, schedule: Q01DX009 (ip), vehicle: saline with Tween-80 94 % of control | [2] 100 % of control

CCOc1ccccc1Nc1cc(=O)[nH]c(=O)[nH]1
inactive: [9] 100 % of control | [10] 97 % of control | [11] 92 % of control

COc1ccc2c3c(ccc2c1)C1CCC(=O)C1(C)CC3 (centres undefined)
inactive: [2] 102 % of control | [5] 96 % of control | [7] 98 % of control

CCOC(OCC)c1cc(-c2cnc(N)nc2N)cc(Cl)c1Cl
inactive: [9] 98 % of control | [10] 97 % of control | [11] 97 % of control

C[n+]1c2ccccc2cc2ccccc21
inactive: endpoint: mean survival time, dose: 12.0 mg/kg/injection, schedule: Q04DX003 (ip), vehicle: saline 102 % of control | endpoint: mean survival time, dose: 25.0 mg/kg/injection, schedule: Q04DX003 (ip), vehicle: saline 98 % of control

Cc1ccc(OC(=O)Nc2cccc3ccccc23)cc1C
inactive: endpoint: mean survival time, dose: 100.0 mg/kg/injection, schedule: Q04DX002 (ip), vehicle: saline with Tween-80 95 % of control | endpoint: mean survival time, dose: 200.0 mg/kg/injection, schedule: Q04DX002 (ip), vehicle: saline with Tween-80 91 % of control

Cc1cc([N+](=O)[O-])ccc1S(=O)(=O)F
inactive: endpoint: mean survival time, dose: 25.0 mg/kg/injection, schedule: Q04DX003 (ip), vehicle: saline with Tween-80 95 % of control | endpoint: mean survival time, dose: 50.0 mg/kg/injection, schedule: Q04DX003 (ip), vehicle: saline with Tween-80 98 % of control | [3] 98 % of control

CCOC(=O)C1=C(C)NC(C)=C(C(=O)OCC)C1Cc1ccccc1
inactive: endpoint: mean survival time, dose: 100.0 mg/kg/injection, schedule: Q01DX009 (ip), vehicle: other 106 % of control | endpoint: mean survival time, dose: 200.0 mg/kg/injection, schedule: Q01DX009 (ip), vehicle: other 98 % of control | endpoint: mean survival time, dose: 400.0 mg/kg/injection, schedule: Q01DX009 (ip), vehicle: other 104 % of control

CCN1CCCC(Nc2nc(Nc3cc(Cl)cc(Cl)c3)nc3ccc(Cl)cc23)C1 (centres undefined)
inactive: endpoint: mean survival time, dose: 25.0 mg/kg/injection, schedule: Q01DX009 (ip), vehicle: saline with Tween-80 103 % of control | [3] 90 % of control

COc1ccc([N+](=O)[O-])cc1NC(=O)Nc1cccc(C(F)(F)F)c1
inactive: endpoint: mean survival time, dose: 50.0 mg/kg/injection, schedule: Q01DX001 (ip), vehicle: Klucel (hydroxypropylcellulose) (HPC) 101 % of control | [15] 96 % of control | [16] 93 % of control

CC(C)(C)ONC(=O)c1ccccc1Sc1ccccc1
inactive: [2] 101 % of control | [5] 98 % of control | [7] 97 % of control

N#Cc1cnn2ccn(C3OC(COC(=O)c4ccccc4)C(OC(=O)c4ccccc4)C3OC(=O)c3ccccc3)c12 (centres undefined)
inactive: [12] 90 % of control | [13] 98 % of control | [14] 94 % of control

CC(C)NCC(O)COc1ccc(O)c(O)c1 (centres undefined)
inactive: endpoint: median survival time, dose: 12.5 mg/kg/injection, schedule: Q01DX009 (ip), vehicle: saline 101 % of control | endpoint: median survival time, dose: 25.0 mg/kg/injection, schedule: Q01DX009 (ip), vehicle: saline 97 % of control and 101 % of control | endpoint: median survival time, dose: 50.0 mg/kg/injection, schedule: Q01DX009 (ip), vehicle: saline 98 % of control and 107 % of control | endpoint: median survival time, dose: 100.0 mg/kg/injection, schedule: Q01DX009 (ip), vehicle: saline 107 % of control and 112 % of control | endpoint: median survival time, dose: 200.0 mg/kg/injection, schedule: Q01DX009 (ip), vehicle: saline 90 % of control

O=C(O)/C(=C\c1ccccc1)c1ccccc1
inactive: [2] 90 % of control | [5] 101 % of control | [7] 95 % of control

O=C(CCCC1CCCCC1)Cc1ccccc1
inactive: endpoint: mean survival time, dose: 100.0 mg/kg/injection, schedule: Q04DX003 (ip), vehicle: acetone 96 % of control | endpoint: mean survival time, dose: 200.0 mg/kg/injection, schedule: Q04DX003 (ip), vehicle: acetone 94 % of control | endpoint: mean survival time, dose: 400.0 mg/kg/injection, schedule: Q04DX003 (ip), vehicle: acetone 102 % of control

CC1CCCCC1C(C)(C#N)Nc1ccccc1 (centres undefined)
inactive: [3] 103 % of control | [6] 104 % of control | [8] 97 % of control

From PubChem BioAssay AID256 (DTP/NCI, 2004)
